This series can be described thus: Solubility by HPLC assay. It counts as physicochemical. The note with it: pH 7.4, HPLC assay. The method, then:
Solubility was assessed for selected compounds using an HPLC assay.

On to `Cc1ccc(-c2cncc(C(=O)N(C)c3ccc(Cl)cc3)c2)cc1` [APZ-2160, N-(4-chlorophenyl)-N-methyl-5-(p-tolyl)nicotinamide], for which the “Solubility (μM) at pH 7.4” value stood at 12.8 μM. For the compound `Cc1ccc(N(C)C(=O)c2ncn(-c3ccc(C)cc3)n2)cc1` [APZ-2327, N-methyl-N,1-di-p-tolyl-1H-1,2,4-triazole-3-carboxamide], the “Solubility (μM) at pH 7.4” value is on record as 19.1 μM.

Source of the values: patent US20260097046A1, “PLASMODIUM FALCIPARUM BLOOD STAGE INHIBITORS” (University of Georgia Research Foundation, Inc., priority 2023, published 2026).
